Assay results published in patent publication US20260285855A1, “HETEROARYL DERIVATIVES AS DDRS INHIBITORS” (CHIESI FARMACEUTICI S.P.A., priority 2023, published 2026).
pKi: −log10 of the molar value.

Legend:
DDR1 = molecular target: T1, DDR1 (Homo sapiens, UniProt Q08345); assay: LanthaScreen Europium Kinase Binding assay, DDR1; conditions: 5 nM DDR1, 20 nM Kinase Tracer 178, 1 h at rt; Ki from IC50 by Cheng-Prusoff; read-out: Ki DDR1
T1 construct: purchased Carna Biosciences
Procedure: (§1) DDR1 and DDR2 binding assays were performed using Life Technologies LanthaScreen™ Europium Kinase Binding assay. […] IC50 values were determined in GraphPad Prism 7.0 software, using 4 parameter model: log (inhibitor) vs. response. IC50 values were converted in Ki using the Cheng-Prusoff equation (Ki-IC50/(1+ [Tracer]/Kd).

DDR2 = molecular target: T2, DDR2 (Homo sapiens, UniProt Q16832); assay: LanthaScreen Europium Kinase Binding assay, DDR2; conditions: 5 nM DDR2, 10 nM Kinase Tracer 178, 1 h at rt; Ki from IC50 by Cheng-Prusoff; read-out: Ki DDR2
T2 construct: purchased Life Technologies
T2 sequence (Q16832 22-855): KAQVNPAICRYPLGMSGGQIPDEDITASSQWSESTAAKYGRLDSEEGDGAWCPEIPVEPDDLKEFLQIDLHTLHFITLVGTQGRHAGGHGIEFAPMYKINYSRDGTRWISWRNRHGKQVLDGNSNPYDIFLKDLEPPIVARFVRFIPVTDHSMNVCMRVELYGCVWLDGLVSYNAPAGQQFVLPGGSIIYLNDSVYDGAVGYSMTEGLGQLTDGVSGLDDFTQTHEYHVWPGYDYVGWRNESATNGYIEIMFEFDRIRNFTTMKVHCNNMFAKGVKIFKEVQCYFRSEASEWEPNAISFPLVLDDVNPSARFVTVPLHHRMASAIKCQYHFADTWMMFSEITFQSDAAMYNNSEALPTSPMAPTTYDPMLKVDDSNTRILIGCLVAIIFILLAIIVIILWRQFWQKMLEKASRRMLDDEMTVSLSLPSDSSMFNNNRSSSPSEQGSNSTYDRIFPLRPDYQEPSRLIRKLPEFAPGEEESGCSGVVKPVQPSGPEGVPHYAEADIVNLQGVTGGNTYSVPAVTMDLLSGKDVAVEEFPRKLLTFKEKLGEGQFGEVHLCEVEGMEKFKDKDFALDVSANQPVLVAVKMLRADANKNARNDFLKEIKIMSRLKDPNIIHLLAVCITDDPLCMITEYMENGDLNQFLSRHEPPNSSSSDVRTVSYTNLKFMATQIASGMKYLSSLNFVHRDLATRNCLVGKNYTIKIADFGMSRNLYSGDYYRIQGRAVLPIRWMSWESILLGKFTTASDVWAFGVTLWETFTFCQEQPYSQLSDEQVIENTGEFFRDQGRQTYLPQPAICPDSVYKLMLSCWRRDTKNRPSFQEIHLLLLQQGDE
Procedure: as §1

T1 sequence (Q08345 19-913): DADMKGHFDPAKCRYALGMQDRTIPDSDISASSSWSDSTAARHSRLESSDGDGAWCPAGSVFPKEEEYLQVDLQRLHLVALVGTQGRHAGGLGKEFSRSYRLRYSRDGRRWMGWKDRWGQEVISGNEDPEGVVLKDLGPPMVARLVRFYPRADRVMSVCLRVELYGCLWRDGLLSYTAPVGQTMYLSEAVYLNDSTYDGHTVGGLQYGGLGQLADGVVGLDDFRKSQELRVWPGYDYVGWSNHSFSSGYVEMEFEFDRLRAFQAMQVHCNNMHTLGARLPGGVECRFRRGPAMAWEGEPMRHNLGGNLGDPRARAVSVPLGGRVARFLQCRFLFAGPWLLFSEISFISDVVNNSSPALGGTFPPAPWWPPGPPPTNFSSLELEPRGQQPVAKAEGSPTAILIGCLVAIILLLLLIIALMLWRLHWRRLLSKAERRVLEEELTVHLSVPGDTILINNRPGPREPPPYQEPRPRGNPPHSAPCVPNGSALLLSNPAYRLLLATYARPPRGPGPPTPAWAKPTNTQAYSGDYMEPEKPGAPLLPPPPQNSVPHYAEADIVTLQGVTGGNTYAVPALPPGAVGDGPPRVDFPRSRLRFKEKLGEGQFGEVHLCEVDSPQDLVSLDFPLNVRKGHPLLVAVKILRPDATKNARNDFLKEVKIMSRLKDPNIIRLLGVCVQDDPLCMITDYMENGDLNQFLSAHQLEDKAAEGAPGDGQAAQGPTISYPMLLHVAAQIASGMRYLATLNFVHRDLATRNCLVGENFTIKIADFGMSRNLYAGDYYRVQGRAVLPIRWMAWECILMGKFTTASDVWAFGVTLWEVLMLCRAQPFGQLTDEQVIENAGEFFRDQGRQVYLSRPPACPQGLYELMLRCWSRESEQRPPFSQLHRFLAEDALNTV

For `O=C(Nc1cc(F)cc(C(F)(F)F)c1)NC1CC2(C1)CN(C(=O)c1cnn3ccncc13)C2` [Example 16, 1-(3-fluoro-5-(trifluoromethyl)phenyl)-3-(2-(pyrazolo[1,5-a]pyrazine-3-carbonyl)-2-azaspiro[3.3]heptan-6-yl)urea], the pKi (DDR1) was greater than 8.30 and the pKi (DDR2) was 7.60 to 8.30.

`COc1ccc(Cl)cc1NC(=O)NC1CC2(C1)CN(C(=O)c1cnn3ccn(C)c13)C2` [Example 38, 1-(5-chloro-2-methoxyphenyl)-3-(2-(1-methyl-1H-imidazo[1,2-b]pyrazole-7-carbonyl)-2-azaspiro[3.3]heptan-6-yl)urea] showed a pKi (DDR1) greater than 8.30 and a pKi (DDR2) of 7.60 to 8.30.

In the case of `CN(C(=O)Nc1cc(C(F)(F)F)ccn1)C1CC2(C1)CN(C(=O)c1cnn3cc(-c4cnn(C)c4)ccc13)C2` [Example 241, 1-methyl-1-(2-(6-(1-methyl-1H-pyrazol-4-yl)pyrazolo[1,5-a]pyridine-3-carbonyl)-2-azaspiro[3.3]heptan-6-yl)-3-(4-(trifluoromethyl)pyridin-2-yl)urea], the pKi (DDR1) was greater than 8.30 and the pKi (DDR2) was 7.60 to 8.30.

With `O=C(Nc1cc(C(F)(F)F)ccn1)NC1CC2(C1)CN(C(=O)c1cnn3ccsc13)C2` [Example 59, 1-(2-(pyrazolo[5,1-b]thiazole-7-carbonyl)-2-azaspiro[3.3]heptan-6-yl)-3-(4-(trifluoromethyl)pyridin-2-yl)urea] the pKi (DDR1) was greater than 8.30 and the pKi (DDR2) was 7.60 to 8.30.

Compound `O=C(Nc1cccc(C(F)(F)F)c1)NC1CC2(C1)CN(C(=O)c1ncnc3[nH]ncc13)C2` [Example 122, 1-(2-(1H-pyrazolo[3,4-d]pyrimidine-4-carbonyl)-2-azaspiro[3.3]heptan-6-yl)-3-(3-(trifluoromethyl)phenyl)urea] has a pKi (DDR1) greater than 8.30 and a pKi (DDR2) greater than 8.30.

`CN(C(=O)Nc1cccc(C(F)(F)F)c1)C1CC2(C1)CN(C(=O)c1cnn3ccsc13)C2` [Example 133, 1-methyl-1-(2-(pyrazolo[5,1-b]thiazole-7-carbonyl)-2-azaspiro[3.3]heptan-6-yl)-3-(3-(trifluoromethyl)phenyl)urea] was tested, and the pKi (DDR1) was greater than 8.30 and the pKi (DDR2) was 7.60 to 8.30.

For `Cn1ccn2ncc(C(=O)N3CC4(CC(NC(=O)Nc5cc(C(F)(F)F)ncn5)C4)C3)c12` [Example 103, 1-(2-(1-methyl-1H-imidazo[1,2-b]pyrazole-7-carbonyl)-2-azaspiro[3.3]heptan-6-yl)-3-(6-(trifluoromethyl)pyrimidin-4-yl)urea], the pKi (DDR1) was greater than 8.30 and the pKi (DDR2) was 7.60 to 8.30.

With `Cn1ccn2ncc(C(=O)N3CC4(CC(NC(=O)Nc5cc(C(F)(F)F)ccc5OCCN5CCOCC5)C4)C3)c12` [Example 56, 1-(2-(1-methyl-1H-imidazo[1,2-b]pyrazole-7-carbonyl)-2-azaspiro[3.3]heptan-6-yl)-3-(2-(2-morpholinoethoxy)-5-(trifluoromethyl)phenyl)urea] the pKi (DDR1) was greater than 8.30 and the pKi (DDR2) was 7.60 to 8.30.

Compound `CN(C(=O)Nc1cc(C#N)cc(C(F)(F)F)c1)C1CC2(C1)CN(C(=O)c1ncnc3[nH]ccc13)C2` [Example 284, 1-(2-(7H-pyrrolo[2,3-d]pyrimidine-4-carbonyl)-2-azaspiro[3.3]heptan-6-yl)-3-(3-cyano-5-(trifluoromethyl)phenyl)-1-methylurea] has a pKi (DDR1) greater than 8.30 and a pKi (DDR2) of 7.60 to 8.30.

`Cn1ccn2ncc(C(=O)N3CC4(CC(NC(=O)Nc5cc(C(F)(F)F)ccc5OC5COC5)C4)C3)c12` [Example 126, 1-(2-(1-methyl-1H-imidazo[1,2-b]pyrazole-7-carbonyl)-2-azaspiro[3.3]heptan-6-yl)-3-(2-(oxetan-3-yloxy)-5-(trifluoromethyl)phenyl)urea] showed a pKi (DDR1) greater than 8.30 and a pKi (DDR2) of 7.60 to 8.30.

In the case of `CN(C(=O)Nc1cccc(C(F)(F)F)c1)C1CC2(C1)CN(C(=O)c1cnn3ccn(C)c13)C2` [Example 134, 1-methyl-1-(2-(1-methyl-1H-imidazo[1,2-b]pyrazole-7-carbonyl)-2-azaspiro[3.3]heptan-6-yl)-3-(3-(trifluoromethyl)phenyl)urea], the pKi (DDR1) was greater than 8.30 and the pKi (DDR2) was 7.60 to 8.30.

Work on `Cn1ccn2ncc(C(=O)N3CC4(CC(OC(=O)Nc5cc(C(C)(C)C(F)(F)F)on5)C4)C3)c12` [Example 271, 2-(1-methyl-1H-imidazo[1,2-b]pyrazole-7-carbonyl)-2-azaspiro[3.3]heptan-6-yl(5-(1,1,1-trifluoro-2-methylpropan-2-yl)isoxazol-3-yl)carbamate] yielded a pKi (DDR1) greater than 8.30 and a pKi (DDR2) greater than 8.30.

In the case of `COc1ccc(OC(F)(F)F)cc1NC(=O)N(C)C1CC2(C1)CN(C(=O)c1cnn3ccc(N4CCN(C)CC4)cc13)C2` [Example 81, 3-(2-methoxy-5-(trifluoromethoxy)phenyl)-1-methyl-1-(2-(5-(4-methylpiperazin-1-yl)pyrazolo[1,5-a]pyridine-3-carbonyl)-2-azaspiro[3.3]heptan-6-yl)urea], the pKi (DDR1) was greater than 8.30 and the pKi (DDR2) was 7.60 to 8.30.

In the case of `CN(C(=O)Nc1cc(C(F)(F)F)cc(Cl)n1)C1CC2(C1)CN(C(=O)c1cnn3ccn(C)c13)C2` [Example 267, 3-(6-chloro-4-(trifluoromethyl)pyridin-2-yl)-1-methyl-1-(2-(1-methyl-1H-imidazo[1,2-b]pyrazole-7-carbonyl)-2-azaspiro[3.3]heptan-6-yl)urea], the pKi (DDR1) was greater than 8.30 and the pKi (DDR2) was greater than 8.30.

`Cn1ccn2ncc(C(=O)N3CC4(CC(N(C(=O)Nc5cccc(C(F)(F)F)c5)C5CC5)C4)C3)c12` [Example 187, 1-cyclopropyl-1-(2-(1-methyl-1H-imidazo[1,2-b]pyrazole-7-carbonyl)-2-azaspiro[3.3]heptan-6-yl)-3-(3-(trifluoromethyl)phenyl)urea] was tested, and the pKi (DDR1) was greater than 8.30 and the pKi (DDR2) was 7.60 to 8.30.

With `O=C(Nc1cc(OC(F)(F)F)ccn1)OC1CC2(C1)CN(C(=O)c1cnn3ccsc13)C2` [Example 272, 2-(pyrazolo[5,1-b]thiazole-7-carbonyl)-2-azaspiro[3.3]heptan-6-yl(4-(trifluoromethoxy)pyridin-2-yl)carbamate] the pKi (DDR1) was greater than 8.30 and the pKi (DDR2) was greater than 8.30.

Work on `N#Cc1cc(NC(=O)NC2CC3(C2)CN(C(=O)c2cnn4ccncc24)C3)cc(C(F)(F)F)c1` [Example 19, 1-(3-cyano-5-(trifluoromethyl)phenyl)-3-(2-(pyrazolo[1,5-a]pyrazine-3-carbonyl)-2-azaspiro[3.3]heptan-6-yl)urea] yielded a pKi (DDR1) greater than 8.30 and a pKi (DDR2) greater than 8.30.

In the case of `O=C(Nc1cccc(C(F)(F)F)c1)NC1CC2(C1)CN(C(=O)c1ncnc3sccc13)C2` [Example 88, 1-(2-(thieno[2,3-d]pyrimidine-4-carbonyl)-2-azaspiro[3.3]heptan-6-yl)-3-(3-(trifluoromethyl)phenyl)urea], the pKi (DDR1) was greater than 8.30 and the pKi (DDR2) was 7.60 to 8.30.

Work on `O=C(Nc1ccc(C(F)(F)F)cn1)NC1CC2(C1)CN(c1cnc3[nH]ncc3c1)C2` [Example 163, 1-(2-(1H-pyrazolo[3,4-b]pyridin-5-yl)-2-azaspiro[3.3]heptan-6-yl)-3-(5-(trifluoromethyl)pyridin-2-yl)urea] yielded a pKi (DDR1) of 7.60 to 8.30 and a pKi (DDR2) of 7.60 to 8.30.

Compound `CN1CCN(c2ccc3ncc(C(=O)N4CC5(CC(NC(=O)Nc6cccc(C(F)(F)F)c6)C5)C4)n3c2)CC1` [Example 5, 1-(2-(6-(4-methylpiperazin-1-yl)imidazo[1,2-a]pyridine-3-carbonyl)-2-azaspiro[3.3]heptan-6-yl)-3-(3-(trifluoromethyl)phenyl)urea] has a pKi (DDR1) greater than 8.30 and a pKi (DDR2) of 7.60 to 8.30.

For `CCc1ncc(C(F)(F)F)cc1NC(=O)N(C)C1CC2(C1)CN(C(=O)c1cnn3ccn(C)c13)C2` [Example 310, 3-(2-ethyl-5-(trifluoromethyl)pyridin-3-yl)-1-methyl-1-(2-(1-methyl-1H-imidazo[1,2-b]pyrazole-7-carbonyl)-2-azaspiro[3.3]heptan-6-yl)urea], the pKi (DDR1) was 7.60 to 8.30 and the pKi (DDR2) was 7.00 to 7.60.

Work on `O=C(Nc1cccc(C(F)(F)F)c1)NC1CC2(C1)CN(C(=O)c1cnn3ccsc13)C2` [Example 4, 1-(2-(pyrazolo[5,1-b]thiazole-7-carbonyl)-2-azaspiro[3.3]heptan-6-yl)-3-(3-(trifluoromethyl)phenyl)urea] yielded a pKi (DDR1) greater than 8.30 and a pKi (DDR2) greater than 8.30.

`Cc1ncc(C(F)(F)F)cc1NC(=O)NC1CC2(C1)CN(C(=O)c1cnn3ccn(C)c13)C2` [Example 171, 1-(2-(1-methyl-1H-imidazo[1,2-b]pyrazole-7-carbonyl)-2-azaspiro[3.3]heptan-6-yl)-3-(2-methyl-5-(trifluoromethyl)pyridin-3-yl)urea] showed a pKi (DDR1) greater than 8.30 and a pKi (DDR2) of 7.60 to 8.30.

Work on `Cn1ccn2ncc(C(=O)N3CC4(CC(NC(=O)Nc5cncc(OC(F)(F)F)c5)C4)C3)c12` [Example 51, 1-(2-(1-methyl-1H-imidazo[1,2-b]pyrazole-7-carbonyl)-2-azaspiro[3.3]heptan-6-yl)-3-(5-(trifluoromethoxy)pyridin-3-yl)urea] yielded a pKi (DDR1) greater than 8.30 and a pKi (DDR2) of 7.60 to 8.30.
